Reference: patent publication US4200636A, “3-Amino-17a-aza-D-homoandrostane compounds, and pharmaceutical compositions containing them” (priority 1977, dated 1980)
Read-outs that look alike come from different tables or passages of the source.

Legend:
muscle relaxation = assay: Total muscle relaxation in alert dogs; assay type: in vivo; conditions: for Activity period: time between administration and disappearance of the activity; for Time until the max. effect: time between administration and total muscle relaxation
Description: To alert dogs (6 animals for each test compound) four doses causing a total muscle relaxation were administered and the time between the administration and the total muscle relaxation as well as the time between the administration and the disappearance of the activity was measured.

tibialis muscle = assay: Neuromuscular block in anesthetized cats (electrically stimulated peroneal nerve, tibialis muscle contractions); assay type: in vivo; conditions: for ED50: i.v. dose reducing the contractions to half of their original values, 4 doses; for Activity period: i.v., time between first appearance of the effect and restoration of normal muscle contractions
Description: The potency and the activity period of the compounds according to the invention were tested on anesthesized cats and alert dogs. On anesthesized cats the peroneal nerve was electrically stimulated and the corresponding contractions of the tibialis muscle was registrated. The i.v. doses of the various test compounds which reduced the contractions to half of their original values were determined (ED50 -values). In the attached Table I the ED50 -values and the corresponding activity periods are shown, the term "activity period" is intended to mean the time interval between the first appearance of the effect of the test compounds and the restoration of the normal muscle contractions. For each test compound 4 doses were used and for each dose 6 animals were examined. As a reference compound suxamethonium was used, which is a known compound widely used as a neuromuscular blocking agent having a short activity period.

[1] = Dose 100 (unit not printed), listed as 3 β-Pyrrolidino-17a-methyl-17a-aza-D-homo-5α -androstane-di-methoiodide
[2] = Dose 100 (unit not printed), listed as 3 β-Pyrrolidino-17a-methyl-17a-aza-D-homo-5 α-androstane-di-methobromide

C[C@]12CC[C@@H]([N+]3(C)CCCC3)C[C@@H]1CC[C@@H]1[C@@H]2CC[C@@]2(C)[C@H]1CCC[N+]2(C)C [3 αPyrrolidino-17a-methyl-17a-aza-D-homo-5α-androstane-di-me] [3α-Pyrrolidino-17a-methyl-17a-aza-D-homo-5α-androstane dimethoiodide]
Activity period (muscle relaxation; Dose 100 (unit not given)): 8.5 min
Time until the max. effect (muscle relaxation; Dose 100 (unit not given)): 19 s
ED50 (tibialis muscle): 0.12 mg/kg
Activity period (tibialis muscle): 12.4 min

C[C@]12CC[C@@H]([N+]3(C)CCCC3)C[C@@H]1CC[C@@H]1[C@@H]2CC[C@@]2(C)[C@H]1CCC[N+]2(C)C [3 α-Pyrrolidino-17a-methyl-17a-aza-D-homo-5α-androstane-di-m] [3α-Pyrrolidino-17a-methyl-17a-aza-D-homo-5α-androstane dimethobromide]
Activity period (muscle relaxation; Dose 100 (unit not given)): 8.6 min
Time until the max. effect (muscle relaxation; Dose 100 (unit not given)): 18 s
Activity period (tibialis muscle): 11.2 min

C[C@]12CC[C@@H]([N+]3(C)CCCC3)C[C@@H]1CC[C@@H]1[C@@H]2CC[C@@]2(C)[C@H]1CCC[N+]2(C)C [3α-Pyrrolidino-17a-methyl-17a-aza-D-homo-5α-androstane dimethobromide]
ED50 (tibialis muscle; Felis catus, iv): 0.1 mg/kg

C[C@]12CC[C@H]([N+]3(C)CCCC3)C[C@@H]1CC[C@@H]1[C@@H]2CC[C@@]2(C)[C@H]1CCC[N+]2(C)C [3 β-Pyrrolidino-17a-methyl-17a-aza-D-homo-5α-androstane-di-m] [3β-Pyrrolidino-17a-methyl-17a-aza-D-homo-5α-androstane dimethoiodide]
Activity period (muscle relaxation; [1]): 8.8 min
Time until the max. effect (muscle relaxation; [1]): 17 s
ED50 (tibialis muscle): 0.105 mg/kg
Activity period (tibialis muscle): 12.6 min

C[N+](C)(C)CCOC(=O)CCC(=O)OCC[N+](C)(C)C [Suxamethonium, reference compound]
Activity period (muscle relaxation; Dose 100 (unit not given)): 10.3 min
Time until the max. effect (muscle relaxation; Dose 100 (unit not given)): 16 s
ED50 (tibialis muscle; Felis catus, iv, read-out: ED50): 0.06 mg/kg
Activity period (tibialis muscle): 11.0 min

C[C@]12CC[C@H]([N+]3(C)CCCC3)C[C@@H]1CC[C@@H]1[C@@H]2CC[C@@]2(C)[C@H]1CCC[N+]2(C)C [3 β-Pyrrolidino-17a-methyl-17a-aza-D-homo-5α-androstane-di-m] [3β-Pyrrolidino-17a-methyl-17a-aza-D-homo-5α-androstane dimethobromide]
Activity period (muscle relaxation; [2]): 9.5 min
Time until the max. effect (muscle relaxation; [2]): 21 s
Activity period (tibialis muscle): 13.0 min

C[C@]12CC[C@H]([N+]3(C)CCCC3)C[C@@H]1CC[C@@H]1[C@@H]2CC[C@@]2(C)[C@H]1CCC[N+]2(C)C [3β-Pyrrolidino-17a-methyl-17a-aza-D-homo-5α-androstane dimethobromide]
ED50 (tibialis muscle; Felis catus, iv): 0.125 mg/kg
